Our source for the IC50 cytotoxicity (DAPI nuclear signal decrease) and IC50 values is PubChem BioAssay AID651630 (Sanford-Burnham Center for Chemical Genomics, 2012).

Molecules are shown by their SMILES. Active and inactive are the calls of the source.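 The calls were made as follows: active = lipid-stain IC50 at or below a set limit, with nuclear-stain toxicity IC50 at least five times higher; inactive = the rest.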 Where only a bound is given, the exact number is not on record here.

The subject of one assay is DAPI. Kind of assay: triacylglycerol accumulation inhibitor potency, dose response, cell-based, panel, Nile Red and DAPI fluorescence, H9c2 (AID 651630).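 Also: cells exposed to compound overnight before fixation and staining.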 As to conditions: H9c2 cells, DAPI nuclear fluorescence (cytotoxicity counter-readout), oleic acid.
The subject of a further assay is TAG. The description is as above. As to conditions: H9c2 cells, Nile Red TAG fluorescence, oleic acid.

With `CCN1C(=O)[C@H]2[C@@H](c3ccc(-c4cccc(Cl)c4)cc3)N[C@@](Cc3ccccc3)(C(=O)OC)[C@H]2C1=O`, the values for the IC50 cytotoxicity (DAPI nuclear signal decrease) with DAPI (mean of runs), in the assay on DAPI (run 1) and in the assay with DAPI (run 2) were > 25 µM (inactive), greater than 25 µM and greater than 25 µM, respectively. In addition, the IC50 (commonly the concentration that inhibits the measured activity by half) in the assay with TAG (mean of runs) was 20 µM (inactive); in the assay with TAG (run 1), 15.9 µM; in the assay with TAG (run 2), 24.1 µM.

As for `CN(C)CC(O)c1ccc(C=Cc2ccc(Cl)cc2)cc1` (stereo not drawn), the figures for the IC50 cytotoxicity (DAPI nuclear signal decrease) in the assay on DAPI (mean of runs), in the assay with DAPI (run 1) and in the assay on DAPI (run 2) were > 25 µM (inactive), greater than 25 µM and greater than 25 µM, respectively. Moreover, the IC50 was 13.8 µM in the assay with TAG (mean of runs), 11.6 µM with TAG (run 1) and 16.1 µM with TAG (run 2).

In the case of `C=CCC[C@H](Cc1ccc(F)cc1)C(=O)OC[C@H](C)NC(=O)[C@@H](CC=C)CC(=O)N[C@H](CO)Cc1ccccc1`, the IC50 cytotoxicity (DAPI nuclear signal decrease) in the assay on DAPI (mean of runs) was > 25 µM (inactive); in the assay with DAPI (run 1) it was greater than 25 µM; in the assay on DAPI (run 2) it was greater than 25 µM. Besides, the results for the IC50 with TAG (mean of runs), in the assay with TAG (run 1) and in the assay with TAG (run 2) were 15.4 µM (inactive), 11.9 µM and 18.9 µM, respectively.

In the case of `O=C(CSc1nc2ccc(Nc3nc(N4CCOCC4)nc(N4CCOCC4)n3)cc2s1)NCc1ccco1`, the IC50 cytotoxicity (DAPI nuclear signal decrease) in the assay on DAPI (mean of runs) was > 25 µM (inactive); with DAPI (run 1) it was greater than 25 µM; in the assay on DAPI (run 2), greater than 25 µM. The IC50 with TAG (mean of runs) was 7.1 µM; in the assay on TAG (run 1), 7.74 µM; in the assay on TAG (run 2), 6.45 µM.

In the case of `Nc1c(C(=O)Nc2ccccc2)c2nc3ccccc3nc2n1CCCN1CCOCC1`, the IC50 cytotoxicity (DAPI nuclear signal decrease) in the assay on DAPI (run 1) and with DAPI (run 2) was greater than 25 µM in each case. The figures for the IC50 in the assay on TAG (mean of runs), in the assay on TAG (run 1) and with TAG (run 2) were 4.64 µM, 4.97 µM and 4.31 µM, respectively.

With `Cc1cc(N/N=C/c2cccc(Cl)c2)nc(-n2nc(C)cc2C)n1`, the IC50 cytotoxicity (DAPI nuclear signal decrease) in the assay with DAPI (mean of runs) is > 25 µM (inactive); in the assay on DAPI (run 1), greater than 25 µM; in the assay with DAPI (run 2), greater than 25 µM. For the same compound, the results for the IC50 with TAG (mean of runs), in the assay on TAG (run 1) and in the assay on TAG (run 2) were > 25 µM (inactive), greater than 25 µM and greater than 25 µM, respectively.

For the compound `CSc1nc(N(C)NC(=O)c2ccccc2)c2ccccc2n1`, the values for the IC50 cytotoxicity (DAPI nuclear signal decrease) in the assay on DAPI (mean of runs), in the assay with DAPI (run 1) and in the assay on DAPI (run 2) were > 25 µM (inactive), greater than 25 µM and greater than 25 µM, respectively. For the same compound, the IC50 is 17.8 µM (inactive) in the assay with TAG (mean of runs), 22 µM in the assay on TAG (run 1) and 13.6 µM in the assay with TAG (run 2).

Regarding `COC(=O)c1c(NC(NC(=O)C(C)(C)C)C(Cl)(Cl)Cl)sc2c1CCC2` (stereo not drawn), the IC50 cytotoxicity (DAPI nuclear signal decrease) was > 25 µM (inactive) in the assay with DAPI (mean of runs), greater than 25 µM in the assay on DAPI (run 1) and greater than 25 µM in the assay with DAPI (run 2). The figures for the IC50 in the assay with TAG (mean of runs), in the assay with TAG (run 1) and in the assay on TAG (run 2) were 13.3 µM, 13.1 µM and 13.5 µM, respectively.

For the compound `Nc1c(C(=O)NC2CCCC2)c2nc3ccccc3nc2n1/N=C/c1cccnc1`, the IC50 cytotoxicity (DAPI nuclear signal decrease) in the assay with DAPI (mean of runs) is > 25 µM (inactive); with DAPI (run 1) it was greater than 25 µM; in the assay on DAPI (run 2), greater than 25 µM. The IC50 was 19 µM (inactive) with TAG (mean of runs), 15 µM in the assay with TAG (run 1) and 23 µM with TAG (run 2).

Consider `Cc1ccc(/C=N/NC(=O)c2cc(-c3cccnc3)nc3ccccc23)cc1`, for which the figures for the IC50 cytotoxicity (DAPI nuclear signal decrease) with DAPI (mean of runs), with DAPI (run 1) and in the assay on DAPI (run 2) were > 25 µM (inactive), greater than 25 µM and greater than 25 µM, respectively. Moreover, the IC50 with TAG (mean of runs) was > 25 µM (inactive); in the assay with TAG (run 1), greater than 25 µM; in the assay on TAG (run 2), greater than 25 µM.

With `C=CCNc1nc(Nc2ccc(OC)c(OC)c2)c2sc(-c3ccccc3)cc2n1`, the IC50 cytotoxicity (DAPI nuclear signal decrease) in the assay with DAPI (mean of runs) was > 25 µM (inactive); in the assay on DAPI (run 1), greater than 25 µM; in the assay with DAPI (run 2), greater than 25 µM. For the same compound, the IC50 in the assay with TAG (mean of runs) was 5.16 µM; in the assay on TAG (run 1), 7.19 µM; in the assay with TAG (run 2) it was 3.13 µM.

As for `COc1cc(CNC(=O)Nc2nc(C(N)Cc3ccc(C(F)(F)F)cc3)cs2)cc(OC)c1OC` (stereo not drawn), the IC50 cytotoxicity (DAPI nuclear signal decrease) with DAPI (mean of runs) is > 25 µM (inactive); with DAPI (run 1), greater than 25 µM; with DAPI (run 2), greater than 25 µM. Besides, the IC50 with TAG (mean of runs) is 8.38 µM; with TAG (run 1), 8.1 µM; in the assay with TAG (run 2) it was 8.66 µM.

Regarding `Oc1cccc2cc(-c3ccncc3)cnc12`, the figures for the IC50 cytotoxicity (DAPI nuclear signal decrease) with DAPI (mean of runs), in the assay with DAPI (run 1) and in the assay on DAPI (run 2) were > 25 µM (inactive), greater than 25 µM and greater than 25 µM, respectively. In addition, the IC50 with TAG (mean of runs) was > 25 µM (inactive); in the assay on TAG (run 1) it was greater than 25 µM; with TAG (run 2), greater than 25 µM.

In the case of `O=C1CCCC2=C1C1(CCCC1)N=C(Nc1nc3cc(-c4ccccc4)ccc3o1)N2`, the figures for the IC50 cytotoxicity (DAPI nuclear signal decrease) in the assay on DAPI (mean of runs), with DAPI (run 1) and in the assay with DAPI (run 2) were > 25 µM (inactive), greater than 25 µM and greater than 25 µM, respectively. In addition, the figures for the IC50 in the assay with TAG (mean of runs), in the assay with TAG (run 1) and in the assay on TAG (run 2) were 17.5 µM (inactive), 15.5 µM and 19.5 µM, respectively.

As to `COc1cc(NC(=O)Nc2nc(C(N)CCc3ccccc3)cs2)cc(OC)c1OC` (stereo not drawn), the IC50 cytotoxicity (DAPI nuclear signal decrease) with DAPI (mean of runs) is > 25 µM (inactive); in the assay with DAPI (run 1), greater than 25 µM; in the assay on DAPI (run 2) it was greater than 25 µM. In addition, the IC50 with TAG (mean of runs) is 6.55 µM; in the assay with TAG (run 1) it was 5.15 µM; in the assay on TAG (run 2), 7.96 µM.

Consider `CCN(CC)CCn1c(SCC(=O)Nc2cccc(OC)c2)nc2c(sc3ccccc32)c1=O`, for which the values for the IC50 cytotoxicity (DAPI nuclear signal decrease) with DAPI (mean of runs), in the assay on DAPI (run 1) and in the assay on DAPI (run 2) were > 25 µM (inactive), greater than 25 µM and greater than 25 µM, respectively. The IC50 in the assay with TAG (mean of runs) was 13.7 µM; in the assay with TAG (run 1) it was 16.7 µM; in the assay with TAG (run 2), 10.6 µM.

For the compound `COc1ccc2cc3cc(C(=O)NCCc4ccc(OC)c(OC)c4)oc3nc2c1`, the results for the IC50 cytotoxicity (DAPI nuclear signal decrease) in the assay on DAPI (mean of runs), in the assay with DAPI (run 1) and in the assay with DAPI (run 2) were > 25 µM (inactive), greater than 25 µM and greater than 25 µM, respectively. The values for the IC50 with TAG (mean of runs), with TAG (run 1) and in the assay on TAG (run 2) were > 25 µM (inactive), greater than 25 µM and greater than 25 µM, respectively.

With `COc1ccc(-c2ccc3[nH]c4c(c3c2)CCN2C(=O)[C@@H]([C@H](C)O)[C@@H](N(C)C(=O)Nc3cc(Cl)cc(Cl)c3)C[C@@H]42)cc1`, the IC50 cytotoxicity (DAPI nuclear signal decrease) is > 25 µM (inactive) with DAPI (mean of runs), greater than 25 µM in the assay with DAPI (run 1) and greater than 25 µM with DAPI (run 2). In addition, the IC50 in the assay with TAG (mean of runs) is 19.5 µM (inactive); in the assay on TAG (run 1), 17.4 µM; in the assay on TAG (run 2) it was 21.5 µM.

For the compound `CCOC(=O)c1[nH]c(C)c(C(=O)Nc2ccccc2C)c1C`, the IC50 cytotoxicity (DAPI nuclear signal decrease) was > 25 µM (inactive) in the assay on DAPI (mean of runs), greater than 25 µM in the assay with DAPI (run 1) and greater than 25 µM in the assay on DAPI (run 2). Moreover, the IC50 in the assay with TAG (mean of runs) was > 25 µM (inactive); in the assay on TAG (run 1), greater than 25 µM; with TAG (run 2), greater than 25 µM.

For `C[C@@H]1CN([C@H](C)CO)C(=O)c2c(c3ccccc3n2C)-c2ccccc2CO[C@H]1CN(C)Cc1ccc(-c2ccccc2)cc1`, the IC50 cytotoxicity (DAPI nuclear signal decrease) was > 25 µM (inactive) with DAPI (mean of runs), greater than 25 µM with DAPI (run 1) and greater than 25 µM with DAPI (run 2). The IC50 is 14.9 µM with TAG (mean of runs), 9.62 µM in the assay on TAG (run 1) and 20.1 µM in the assay with TAG (run 2).

Consider `Brc1ccc(C2=Nn3c(nnc3-c3n[nH]c4c3CCC4)SC2)cc1`, for which the IC50 cytotoxicity (DAPI nuclear signal decrease) with DAPI (mean of runs) was > 25 µM (inactive); with DAPI (run 1), greater than 25 µM; with DAPI (run 2), greater than 25 µM. Further, the 50% inhibitory concentration (IC50) with TAG (mean of runs) was 13.8 µM; with TAG (run 1), 9.45 µM; in the assay on TAG (run 2), 18.1 µM.

Take `CCOC(=O)c1cc(-c2ccccc2)sc1NC(=O)COC(=O)c1cccc(S(N)(=O)=O)c1`: the results for the IC50 cytotoxicity (DAPI nuclear signal decrease) in the assay with DAPI (mean of runs), in the assay on DAPI (run 1) and with DAPI (run 2) were > 25 µM (inactive), greater than 25 µM and greater than 25 µM, respectively. The IC50 in the assay with TAG (run 1) is greater than 25 µM; with TAG (run 2), 21.4 µM.

On to `COc1ccc(C[C@H]2CN3C(=NC[C@@H]3Cc3ccc(O)cc3)N2CCNC(=O)c2ccc(C)c(Br)c2)cc1`, for which the IC50 cytotoxicity (DAPI nuclear signal decrease) in the assay on DAPI (run 1) is 24 µM; in the assay with DAPI (run 2), greater than 25 µM. Also, the IC50 was > 25 µM (inactive) in the assay with TAG (mean of runs), greater than 25 µM in the assay with TAG (run 1) and greater than 25 µM in the assay with TAG (run 2).

Regarding `COc1ccc(NC(=O)C2(C)Cc3c(-c4ccc5c(c4)OCO5)ccnc3O2)cn1` (stereo not drawn), the results for the IC50 cytotoxicity (DAPI nuclear signal decrease) with DAPI (mean of runs), in the assay with DAPI (run 1) and with DAPI (run 2) were > 25 µM (inactive), greater than 25 µM and greater than 25 µM, respectively. Further, the results for the IC50 with TAG (mean of runs), with TAG (run 1) and in the assay with TAG (run 2) were > 25 µM (inactive), greater than 25 µM and greater than 25 µM, respectively.

Turning to `Cc1ccsc1-c1nc(C(N)=O)c2[nH]c(=O)n(-c3ccc(Cl)cc3)c2n1`, the IC50 cytotoxicity (DAPI nuclear signal decrease) was > 25 µM (inactive) in the assay on DAPI (mean of runs), greater than 25 µM with DAPI (run 1) and greater than 25 µM in the assay on DAPI (run 2). Also, the IC50 with TAG (mean of runs) is > 25 µM (inactive); in the assay with TAG (run 1) it was greater than 25 µM; in the assay with TAG (run 2) it was greater than 25 µM.

For `Nc1c(Cl)cc(-c2csc(N3CCCC3c3nc4cc(Cl)c(N5CCCCC5)cc4n3CCCO)n2)cc1Cl` (stereo not drawn), the IC50 cytotoxicity (DAPI nuclear signal decrease) is 15.6 µM (inactive) in the assay on DAPI (mean of runs), 14.5 µM in the assay with DAPI (run 1) and 16.6 µM in the assay on DAPI (run 2). Also, the IC50 in the assay on TAG (mean of runs) is 3.56 µM; with TAG (run 1), 2.87 µM; with TAG (run 2), 4.26 µM.
